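Where inhibition never reached the appropriate level, the endpoint shown equals the highest concentration tested. Otherwise, values were interpolated linearly from a five-concentration, 48-hour dose response in 96-well plates. GI50 = concentration required for 50% inhibition of growth.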 Activity calls are given as the source filed them. Rule as the data show it: active = GI50 up to about 1.1 µM and inactive = higher.
What was measured:
Experiment in all cases: inhibition of tumour cell growth, NCI panel, 48 h
A498 = system: A498
CCRF-CEM = system: CCRF-CEM
HCT-15 = system: HCT-15
HL-60 = system: HL-60
HOP-62 = system: HOP-62
HOP-92 = system: HOP-92
HT-29 = system: HT-29
KM12 = system: KM12
NCI-H23 = system: NCI-H23
NCI-H460 = system: NCI-H460
NCI-H522 = system: NCI-H522
OVCAR-3 = system: OVCAR-3
OVCAR-4 = system: OVCAR-4
RPMI-8226 = system: RPMI-8226
SK-MEL-28 = system: SK-MEL-28
SK-MEL-2 = system: SK-MEL-2
SNB-75 = system: SNB-75
UACC-62 = system: UACC-62

Measured: GI50

COc1ccc(C(=O)C#Cc2cnc(O)nc2O)cc1
inactive: A498 23.7 µM | CCRF-CEM 2.52 µM | HL-60 5.21 µM | HOP-62 19.7 µM | HOP-92 21.4 µM | HT-29 11.5 µM | KM12 18.7 µM | NCI-H23 14.6 µM | NCI-H460 25.1 µM | NCI-H522 3.12 µM | OVCAR-3 9.1 µM | OVCAR-4 16.8 µM | RPMI-8226 13.3 µM | SK-MEL-28 14 µM | SK-MEL-2 7.46 µM | SNB-75 23.8 µM | UACC-62 12.9 µM
7.83 µM: HCT-15

COc1ccc([C@@H]2CC(=O)NCCCCNCCCN2)cc1
> 100 µM: HCT-15
inactive: A498 > 100 µM | CCRF-CEM > 100 µM | HL-60 > 100 µM | HOP-62 > 100 µM | HOP-92 > 100 µM | HT-29 > 100 µM | KM12 > 100 µM | NCI-H23 > 100 µM | NCI-H460 > 100 µM | NCI-H522 > 100 µM | OVCAR-4 > 100 µM | RPMI-8226 > 100 µM | SK-MEL-28 > 100 µM | SK-MEL-2 > 100 µM | SNB-75 > 100 µM | UACC-62 > 100 µM

COc1ccc(CCc2cc(OC)cc(OC)c2)cc1
inactive: A498 17 µM | CCRF-CEM 15.6 µM | HL-60 8.69 µM | HOP-62 16.7 µM | HOP-92 38.3 µM | HT-29 6.11 µM | KM12 4.92 µM | NCI-H23 24.2 µM | NCI-H460 22 µM | NCI-H522 4.98 µM | OVCAR-3 10.9 µM | OVCAR-4 27 µM | RPMI-8226 16.1 µM | SK-MEL-28 29.6 µM | SK-MEL-2 11.1 µM | SNB-75 32.9 µM | UACC-62 11.9 µM
7.06 µM: HCT-15

C=C(CS(=O)(=O)c1ccccc1)C(=O)OCC
12.6 µM: HCT-15
inactive: CCRF-CEM 2.77 µM | HOP-92 21.4 µM | HT-29 11.2 µM | KM12 16.1 µM | NCI-H23 18.2 µM | NCI-H460 18.7 µM | NCI-H522 3.41 µM | OVCAR-3 13.4 µM | SK-MEL-28 15.1 µM | SK-MEL-2 15.6 µM | SNB-75 17.4 µM | UACC-62 4.74 µM

CCOC1=C2C(C)(CCC3[C@@]4(C)C=CC(=O)C(C)(C)C4CC(O)[C@@]23C)C(c2ccoc2)C1=O (stereo partly specified)
inactive: A498 17.3 µM | CCRF-CEM 7.93 µM | HL-60 14.4 µM | HOP-62 20.5 µM | HOP-92 17.9 µM | HT-29 10.9 µM | KM12 15.2 µM | NCI-H23 13.1 µM | NCI-H460 13.7 µM | OVCAR-3 17 µM | OVCAR-4 17.2 µM | RPMI-8226 15.6 µM | SK-MEL-28 15.6 µM | SK-MEL-2 19.2 µM | SNB-75 54.3 µM | UACC-62 18.7 µM
11.7 µM: HCT-15

CC1=C(C(N)=O)C(c2ccncc2)C(C#N)C(=O)N1 (stereo unspecified)
> 100 µM: HCT-15
inactive: A498 > 100 µM | CCRF-CEM > 100 µM | HL-60 > 100 µM | HOP-62 > 100 µM | HOP-92 > 100 µM | KM12 > 100 µM | NCI-H23 > 100 µM | NCI-H460 > 100 µM | OVCAR-4 > 100 µM | RPMI-8226 > 100 µM | SK-MEL-28 > 100 µM | SK-MEL-2 > 100 µM | SNB-75 > 100 µM | UACC-62 > 100 µM

CCOP(=O)(OCC)/C(C#N)=C\c1ccsc1
> 100 µM: HCT-15
inactive: HOP-62 > 100 µM | HOP-92 > 100 µM | HT-29 > 100 µM | KM12 > 100 µM | NCI-H23 > 100 µM | NCI-H460 > 100 µM | NCI-H522 > 100 µM | OVCAR-3 > 100 µM | OVCAR-4 > 100 µM | RPMI-8226 > 100 µM | SK-MEL-28 > 100 µM | SK-MEL-2 > 100 µM | SNB-75 > 100 µM | UACC-62 > 100 µM

COC(=O)[C@@H](C)[C@H]1CC[C@@](C)(CCC2=C(C)CC3C=C(C)CCC3C2(C)C)OO1 (stereo partly specified)
1.31 µM: HCT-15
active: CCRF-CEM 0.165 µM | HL-60 0.212 µM | NCI-H522 0.167 µM
inactive: A498 1.8 µM | HOP-62 2.06 µM | HT-29 1.42 µM | KM12 1.42 µM | NCI-H23 1.7 µM | NCI-H460 1.5 µM | OVCAR-3 1.92 µM | OVCAR-4 1.52 µM | RPMI-8226 1.65 µM | SK-MEL-28 1.65 µM | SK-MEL-2 1.59 µM | SNB-75 1.57 µM | UACC-62 1.94 µM

COc1ccc(NC(=O)/C(Cc2nc3ccccc3nc2O)=N\O)c(OC)c1
> 100 µM: HCT-15
inactive: A498 > 100 µM | CCRF-CEM > 100 µM | HL-60 > 100 µM | HOP-62 > 100 µM | HOP-92 > 100 µM | HT-29 > 100 µM | KM12 > 100 µM | NCI-H23 > 100 µM | NCI-H460 > 100 µM | NCI-H522 > 100 µM | OVCAR-3 > 100 µM | OVCAR-4 > 100 µM | RPMI-8226 > 100 µM | SK-MEL-28 > 100 µM | SNB-75 > 100 µM | UACC-62 > 100 µM

O=C(Cc1ccccc1)NN1C(=O)C(Cl)C1c1cc(Br)ccc1O (stereo unspecified)
3.65 µM: HCT-15
active: CCRF-CEM 0.755 µM
inactive: HL-60 2.46 µM | HOP-62 2.65 µM | HT-29 7.64 µM | KM12 9.48 µM | NCI-H23 4.43 µM | NCI-H460 2.2 µM | NCI-H522 2.72 µM | OVCAR-3 2.56 µM | OVCAR-4 2.21 µM | RPMI-8226 3.72 µM | SK-MEL-28 3.94 µM | SK-MEL-2 3.05 µM | SNB-75 10.4 µM | UACC-62 4.15 µM

Cc1cc(-c2ccccc2)cc2[n+]1CC=C2.[O-][Cl+3]([O-])([O-])[O-]
inactive: HL-60 72.3 µM | HOP-62 > 100 µM | HOP-92 15.5 µM | HT-29 52.7 µM | KM12 > 100 µM | NCI-H23 59.2 µM | NCI-H460 > 100 µM | NCI-H522 39.6 µM | OVCAR-4 > 100 µM | SK-MEL-28 > 100 µM | SK-MEL-2 > 100 µM | SNB-75 35.2 µM

O=C1CC2CCCC23CC2(CCN13)OCCO2 (stereo unspecified)
inactive: A498 > 100 µM | CCRF-CEM > 100 µM | HL-60 > 100 µM | HOP-62 > 100 µM | HOP-92 > 100 µM | HT-29 > 100 µM | KM12 > 100 µM | NCI-H23 > 100 µM | NCI-H460 > 100 µM | NCI-H522 > 100 µM | OVCAR-3 > 100 µM | OVCAR-4 > 100 µM | RPMI-8226 > 100 µM | SK-MEL-28 > 100 µM | SK-MEL-2 > 100 µM | SNB-75 > 100 µM | UACC-62 > 100 µM

CN(C)CCC(=O)/C=C\c1ccccc1
16.1 µM: HCT-15
inactive: A498 20 µM | CCRF-CEM 4.06 µM | HL-60 10.6 µM | HOP-62 67.3 µM | HOP-92 16.6 µM | HT-29 19.5 µM | KM12 15 µM | NCI-H460 18.9 µM | NCI-H522 18.9 µM | OVCAR-3 18.2 µM | OVCAR-4 19.1 µM | RPMI-8226 14.6 µM | SK-MEL-28 16.9 µM | SNB-75 60.1 µM | UACC-62 17.4 µM

CC[C@@]1(O)C(=O)OCc2c1cc1n(c2=O)Cc2cc3c(OC)cccc3nc2-1
0.805 µM: HCT-15
active: A498 0.6 µM | CCRF-CEM < 0.01 µM | HL-60 < 0.01 µM | HOP-92 0.0432 µM | KM12 0.867 µM | NCI-H23 < 0.1 µM | NCI-H522 0.145 µM | OVCAR-3 0.521 µM | OVCAR-4 1.06 µM | RPMI-8226 0.0158 µM | SK-MEL-2 0.834 µM | SNB-75 0.0622 µM | UACC-62 < 0.1 µM

CC(C)(CN1CCCCC1)C(=O)/C=C/c1ccc(Br)cc1
active: HOP-92 0.875 µM
inactive: A498 2.58 µM | CCRF-CEM 2.77 µM | HL-60 2.4 µM | HOP-62 3.85 µM | HT-29 3.1 µM | KM12 3 µM | NCI-H23 2.77 µM | NCI-H522 1.82 µM | OVCAR-3 2.07 µM | OVCAR-4 4.31 µM | RPMI-8226 3.07 µM | SK-MEL-28 3.99 µM | SK-MEL-2 3.69 µM | SNB-75 5.89 µM | UACC-62 6.56 µM

Cc1cc(C)c2[s+]snc2c1
inactive: A498 37.7 µM | CCRF-CEM 28.5 µM | HL-60 18.3 µM | HOP-62 82.4 µM | HT-29 52.5 µM | KM12 95.7 µM | NCI-H23 54 µM | NCI-H460 75.7 µM | NCI-H522 31.1 µM | OVCAR-3 97.9 µM | OVCAR-4 > 100 µM | SK-MEL-28 62.1 µM | SK-MEL-2 75 µM | SNB-75 > 100 µM | UACC-62 36.6 µM

Cc1cc(Cl)cc2c1NC(=O)C2(O)CC(=O)c1ccc(F)cc1 (stereo unspecified)
74.1 µM: HCT-15
inactive: HOP-62 > 100 µM | HOP-92 > 100 µM | HT-29 48.1 µM | KM12 > 100 µM | NCI-H23 61.1 µM | NCI-H460 83.8 µM | OVCAR-3 37.8 µM | OVCAR-4 41.9 µM | RPMI-8226 27.2 µM | SK-MEL-28 37.2 µM | SK-MEL-2 73.3 µM | SNB-75 26.5 µM | UACC-62 20 µM

CC(=O)O[C@H]1C(=O)[C@@]2(C)C(C(OC(=O)c3ccccc3)C3[C@@H](O)C(OC(=O)[C@@H](O)[C@H](NC(=O)c4ccccc4)c4ccc(C(F)(F)F)cc4)C(C)=C1C3(C)C)[C@]1(OC(C)=O)CO[C@@H]1C[C@@H]2O (stereo partly specified)
inactive: CCRF-CEM 18.2 µM | HL-60 7.98 µM | HOP-62 > 25 µM | HT-29 12.6 µM | NCI-H23 > 25 µM | NCI-H460 23.9 µM | NCI-H522 7.59 µM | OVCAR-3 17.7 µM | RPMI-8226 10.3 µM | SK-MEL-28 > 25 µM | SK-MEL-2 > 25 µM | SNB-75 7.71 µM | UACC-62 19.2 µM
> 25 µM: HCT-15
